According to US6495065B1, “Nitrosamine-inhibiting compositions for shortstopping of free radical emulsion polymerizations” (Atofina Chemicals, Inc., priority 1999, dated 2002):

Assay: Solubility in water

| Compound | Solubility in water |
| --- | --- |
| CCN(O)CC [DEHA, diethylhydroxylamine] | ~85 wt. % |
| CC(C)NO [NiPHA, N-isopropylhydroxylamine] | ~15 wt. % |
